Tests used:
BT20 cells [1] = type: cell-based, human
Experimental: (§1) B. MDA-MD-468 cells were transduced with an IPTG inducible shEGFR targeted against the 3′ UTR of EGFR. These cells were incubated with IPTG for the indicated number of days and lysates were generated to confirm knock down of EGFR. C. In tandem with B., cells were plated and incubated +/−IPTG for 2 days prior to drug treatment. […] After 5 days of IPTG and 3 days of peptide treatment viability was measured using an MTT assay.
To investigate rt-EGFR, the role of the Sorting Nexins to regulate EGFR trafficking to the lysosome for degradation was investigated. To determine if SNX1 domains could be therapeutically mimicked, three SNX1-based peptides were synthesized, each of which was generated in tandem with a Cell Penetrating Peptide domain (PTD-4) to allow for intracellular penetration^19 (SNX1.1, 1.2 and 1.3, FIG. 2A). The ability of each peptide to reduce cell survival in the triple negative breast cancer cell line BT20 was evaluated.
(§2) EGFR activity is known to promote the activity of other RTKs, including those in the EGFR family (HER2, HER3 and HER4) and the c-Met receptor (Puri and Salgia 2008; Linklater et al. 2016). Therefore, the ability of SNX1.3 to inhibit 2D migration was next evaluated, both in response to EGF as well as other migration-inducing ligands. […] Cells were plated on plastic and allowed to migrate into an artificial wound over 12 hours. […] To determine if this inhibitory effect was restricted to EGF-induced migration, the ability of SNX1.3 to impact neuregulin (NRG1) was also tested and hepatic growth factor (HGF)-induced migration. NRG is the ligand for HER3 and HER4, and HGF the ligand for the c-Met receptor, both of which are receptor tyrosine kinases. In addition, soluble hyaluronic acid (HA)-induced migration, the ligand for CD44, was also tested [a non-kinase membrane receptor that induces migration (Louderbough, Lopez, and Schroeder 2010)]. […] Note that all receptors undergo endocytosis, with the RTKs primarily undergoing clathrin-dependent endocytosis, while CD44 endocytosis is clathrin-independent (Dutta and Donaldson 2015).

WAP-TGFα tumors [2] = assay: Histology and protein lysate analysis of treated WAP-TGFα tumors; type: in vivo, mouse
From the text: Mice were bred continuously to induce transgene expression and palpated weekly for tumor formation. […] A. Changes in tumor size from entry into study until end of study are shown for each individual tumor, (*) indicate tumors that entered the study at size greater than 500 mm^3, all other tumors entered the study at ˜100 mm^3. B. a Kaplan-Meier survival curve was generated showing when mice were sacrificed by either reaching tumor burden (2000 mm^3) or the end of the study (p=0.0002). C. Upon sacrifice tumors were harvested and fixed in 10% formalin and embedded in paraffin. Slides were stained with hematoxylin and eosin and imaged at 20×. D. Protein lysates were generated from tumors upon sacrifice and probed for the indicated proteins.
(§3) A. Tumors (n=6 each treatment) from WAP-TGF mice as described in FIG. 1 were embedded and analyzed by NanoString. […] C. Tumors were dissected, lysed, and analyzed for apoptosis by probing for cleaved PARP and PDL1 expression.
At the end of the study, mice were sacrificed and tissues were collected and fixed in 10% buffered formalin or homogenized in tissue lysis buffer. Tissues were sectioned and evaluated for changes to tissue morphology in response to peptide treatment (FIG. 3C). […] Representative tumors from the PARP-cleavage positive (cSNX1.3-treated) and negative (cPTD4-treated) are shown (FIG. 3C).
(§4) Due to the increased leukocyte infiltration identified by histology of cSNX1.3-treated WAP-TGFα mice, NanoString analysis was performed using a panel that identifies alterations in immune regulators through localized analysis of transcript expression (PanCancer IO 360 Panel). […] These include several immune/inflammatory genes (such as CD2, TLR, CD28, H2-M3, Ly6C1, cytokines, and chemokines) as well as genes that could impact the metastatic potential of the microenvironment (including collagen 11A1 and MM P12). NanoString bioinformatics analysis further identified that these changes could be due to an increase in Cytotoxic T lymphocytes (CTLs) in cSNX1.3-treated samples compared to PTD4 (FIG. 8B). […] Therefore, tumor lysates were prepared and evaluated for apoptosis and a loss of the negative immune checkpoint receptor PDL1 (FIG. 8C). […] These changes could indicate an alteration from an immune-suppressive to an immune-surveilling microenvironment.

BT20 cells [3] = assay: 2D cell migration into an artificial wound, BT20 cells; type: cell-based, human
Experimental: Area migrated was measured with ImageJ.
as §2

WAP-TGFα tumors [4] = assay: NanoString analysis of WAP-TGFα tumors (PanCancer IO 360 Panel); type: in vivo, mouse; conditions: WAP-TGFα tumors, found by NanoString
Experimental: as §3
C. WAP-TGFα tumors treated with either SNX1.3 or cPTD4 were analyzed for NK cells using an anti-NKp46 antibody. Inset is 20×.
as §4

MDA-MB-468 cells = type: cell-based, human; conditions: MDA-MB-468, 3 days, MTT assay
Experimental: A. Peptide sequence alignment of modified and stabilized peptides (−) indicates conserved residues, (/) indicates a deleted residue. Modified residues used for staples are (S)-2-(((9H-flouren-9-yl) methoxy) caronylamino)-2-methyl-hept-6-enoic acid (5) and (R)-2-(((9H-flouren-9-yl) methoxy) caronylamino)-2-methyl-dec-9-enoic acid (8). PTD4=Protein Transduction Domain. Ac=acetylation of 5′ end and NH2=amidation of 3′ end. B. MDA-MB-468 cells were treated with 10 μM of the indicated peptide for 3 days. Cell viability was measured using an MTT assay. Vehicle control represents 100%. C. A predicted peptide structure of SNX1.3 was generated using SWISSMODEL with negative (blue) and positive (red) residues highlighted.
as §1
Predicted peptide structure including negatively (blue) and positively (red) charged residues was used to guide the modifications (FIG. 2C).

MCF10A cells = type: cell-based

Compound	growth of BT20 cells (BT20 cells [1]; first screen of SNX1-based peptides)	impact on viability via MTT (BT20 cells [1]; in less than 24 hours, data not shown)	infiltration of cytotoxic T lymphocytes and neutrophils in tumors (WAP-TGFα tumors [2]; compared to control mice)	overall PDL1 expression in tumors (WAP-TGFα tumors [2]; tumor lysates)	soluble hyaluronic acid (HA)-induced migration (CD44) (BT20 cells [3]; BT20, 12 hours, ligand for CD44)	neuregulin (NRG1) induced migration (BT20 cells [3]; BT20, 12 hours, ligand for HER3 and HER4)	hepatic growth factor (HGF)-induced migration (BT20 cells [3]; BT20, 12 hours, ligand for c-Met receptor)	EGF induced migration (BT20 cells [3]; BT20 on plastic, 12 hours)	secretion of IL33 (WAP-TGFα tumors [4])	inhibition of cell survival, compared with Sapitinib (MDA-MB-468 cells)	inhibition of cell survival, compared with Sapitinib (BT20 cells [1]; BT20, 3 days, MTT assay)	impact on normal immortalized cells (MCF10A cells)
YARAAARQARAKNHVIKYLETLLYSQQQLAKYWEAFL [SNX1.3]	inhibits the growth	no impact on viability	increased infiltration	decrease	did not block	inhibited migration	inhibited migration	no migration was observed	induced	–	–	–
CNC(=O)CN1CCC(Oc2cc3c(Nc4cccc(Cl)c4F)ncnc3cc2OC)CC1 [Sapitinib, reference compound]	–	–	–	–	–	–	–	–	–	inhibited cell survival	inhibited cell survival	more effective at inhibiting cell growth in normal cells than in cancer cells
